According to US4322308A, “Detergent product containing deodorant compositions” (priority 1977, dated 1982):

Experiments:
[1] = system: body malodour (axillae of human subjects); experiment: Odour Reduction Value Test (soap bars applied to the axillae of a human panel); type: in vivo; settings: for Odour Reduction Value: 0 to 5 scale, 5 hours after washing
Procedure: As has been stated, the ability of toilet soap containing both a deodorant perfume and a deodorant other than a deodorant perfume to reduce body malodour was assessed by an odour reduction value test, somewhat similar to that described by Whitehouse and Carter in Proc. Scientific Section of the Toilet Goods Association, 48, 31 (1967) for the measurement of body odour inhibition by germicides in toilet soap.
The test described in that publication was modified in three ways: firstly a 0 to 5 instead of a 0 to 10 grading scale was employed, secondly grading of odour intensity was performed 5 hours after treatment instead of 24 hours, and thirdly, the concentration of deodorant perfume incorporated in the test detergent product was 1.5% by weight of the product.
In this test, the odour reduction value of a standard soap bar containing a deodorant perfume at a standard concentration is measured by assessing its effectiveness in reducing body malodour when the standard soap bar is used to wash the axillae (armpits) of a panel of human subjects.
Standard soap bars are prepared as follows, all amounts given being by weight.
A soap base there is used a neutral wet sodium soap containing 63% of total fatty matter of which 82% is tallow fatty acid and 18% is coconut oil fatty acid. To a homogeneous mixture of 9000 parts of this soap base and 340 parts of free coconut oil fatty acid at 80° C. are added with mixing, 9.4 parts of a 20% aqueous solution of tetrasodium ethylenediamine tetraacetate, 2.2 parts of a 60% aqueous solution of 1-hydroxyethane-1,1-diphosphonic acid and 7.2 parts of butylated hydroxy toluene (BHT) antioxidant dissolved in a little methylated spirits and the temperature of the mass is raised to 140° C. under superatmospheric pressure. The mass is then sprayed at about 30 mm of mercury, to produce a dried soap composition which is collected and extruded at 30° C. as noodles of about 12% moisture content.
9,770 parts of the soap noodles thus obtained are mixed at ambient temperature with 150 parts of the deodorant perfume to be tested, together with 30 parts of a titanium dioxide opacifier and 50 parts of a colourant suspension. The resulting mixture is milled and stamped into tablets. The deodorant perfume to be tested is therefore present at the standard level of 1.5%.
In other respects, the control bar should only contain those additives conventionally present in personal washing products and for the purpose in the amount conventionally used in the art.
A team of 2 to 4 Caucasian female assessors of age within the range of from 20 to 40 years is selected for olfactory evaluation on the basis that each is able to rank correctly the odour levels of the series of aqueous isovaleric acid solutions listed in Table 2 below, and each is able to detect the reduction in body odour following application to the axillae of human subjects of soap containing 2% germicides, according to the procedure described by Whitehouse and Carter.
A panel of 30 to 50 human subjects for use in the test is assembled from Caucasian male subjects of age within the range of from 20 to 55 years.
For two weeks before the start of a test, the panel subjects are assigned a non-deodorant soap bar for exclusive use of bathing and are denied the use of any type of deodorant or antiperspirant. At the end of this period, the subjects are randomly divided into two groups. The control soap bars are then applied to the left axillae of the first group and the right axillae of the second, and the test soap bars are applied to the right axillae of the first group and the left axillae of the second.
The soap bars are applied by a technician using a standard technique in which a wet flannel is soaped with the soap bar for 15 seconds, the axilla is washed with the soaped flannel for 30 seconds, then wiped with a water rinsed flannel and dried with a clean towel.

[2] = biological target: T1, lipoxidase (E.C. 13.1.13) (Glycine max, UniProt P08170); experiment: The Lipoxidase Test (inhibition of linoleic acid oxidation); type: biochemical; settings: test substrate made with 0.5% by weight solution of the material in ethanol, borate buffer pH 9.0, OD at 234 nm
T1 sequence (P08170 1-839): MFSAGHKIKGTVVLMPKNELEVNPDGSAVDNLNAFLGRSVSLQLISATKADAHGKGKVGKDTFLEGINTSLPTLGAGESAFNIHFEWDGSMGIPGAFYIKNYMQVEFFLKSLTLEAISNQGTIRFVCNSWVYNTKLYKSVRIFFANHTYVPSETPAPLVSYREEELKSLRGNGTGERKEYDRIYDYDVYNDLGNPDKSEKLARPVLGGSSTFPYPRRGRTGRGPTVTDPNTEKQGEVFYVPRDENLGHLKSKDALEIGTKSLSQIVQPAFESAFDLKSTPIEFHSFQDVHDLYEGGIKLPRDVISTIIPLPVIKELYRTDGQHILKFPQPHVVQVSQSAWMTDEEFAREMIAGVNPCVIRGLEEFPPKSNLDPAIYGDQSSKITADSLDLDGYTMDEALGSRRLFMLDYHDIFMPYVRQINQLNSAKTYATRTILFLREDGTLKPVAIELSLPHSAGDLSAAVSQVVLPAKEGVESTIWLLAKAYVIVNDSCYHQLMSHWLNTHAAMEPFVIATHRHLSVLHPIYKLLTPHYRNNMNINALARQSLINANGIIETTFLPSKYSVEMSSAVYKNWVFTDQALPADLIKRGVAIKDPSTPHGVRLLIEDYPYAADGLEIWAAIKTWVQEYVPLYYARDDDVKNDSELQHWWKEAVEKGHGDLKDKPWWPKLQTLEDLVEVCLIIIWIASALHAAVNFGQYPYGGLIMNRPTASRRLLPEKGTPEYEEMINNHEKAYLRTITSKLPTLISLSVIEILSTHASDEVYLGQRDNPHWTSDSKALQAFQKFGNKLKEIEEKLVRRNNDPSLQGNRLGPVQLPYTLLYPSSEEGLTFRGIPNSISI

[3] = The Morpholine Test (depression of partial vapour pressure of morpholine); settings: morpholine 0.25 g + perfume material 1 g, 37° C., headspace GC

## O=C(Nc1ccc(Cl)cc1)Nc1ccc(Cl)c(Cl)c1 [3,3,4'-trichloro-carbanilide, 3,4,4'-trichlorocarbanilide]
[1]; 0.16 wt % germicide in soap bar vs control soap bar without germicide
  Odour Reduction Value: 0.10
[1]; 0.25 wt % germicide in soap bar vs control soap bar without germicide
  Odour Reduction Value: 0.14
[1]; 0.5 wt % germicide in soap bar vs control soap bar without germicide
  Odour Reduction Value: 0.22
[1]; 0.75 wt % germicide in soap bar vs control soap bar without germicide
  Odour Reduction Value: 0.27
[1]; 1.0 wt % germicide in soap bar vs control soap bar without germicide
  Odour Reduction Value: 0.30
[1]; 2.0 wt % germicide in soap bar vs control soap bar without germicide
  Odour Reduction Value: 0.37
[1]; germicide alone in soap bar, irrespective of the amount of germicide
  maximum reduction in odour intensity obtainable (odour reduction value): ≤ 0.4

## O=C(Cc1ccccc1)OCCc1ccccc1 [Phenylethyl phenylacetate]
[2]; read-out: LIC (lipoxidase-inhibiting capacity, % inhibition)
  inhibition at 0.5 % strength: 0%
[3]
  RVR (Raoult variance ratio): 1.22

## Tetrahydromuguol
[2]
  LIC (lipoxidase-inhibiting capacity, % inhibition): 24%

## i-Nonyl formate
[2]
  LIC (lipoxidase-inhibiting capacity, % inhibition): 19%

## Dimyrcetol
[2]
  LIC (lipoxidase-inhibiting capacity, % inhibition): 14%

## i-Nonyl acetate
[2]
  LIC (lipoxidase-inhibiting capacity, % inhibition): 50%
